Results from patent US8242280B2, “Fused ring heterocycle kinase modulators” (SGX Pharmaceuticals, Inc., priority 2007, dated 2012).

Columns and labels:
[1] = biological target: T1, unphosphorylated T315I Abl kinase domain (Mus musculus, UniProt P00520, T315I); assay: c-Abl T315I 0P bioassay (pyruvate kinase/lactate dehydrogenase coupled enzyme assay); assay type: biochemical; details: zero phosphorylation state (0P), 10 μM ATP, read-out: AbI T315I 0P IC50
T1 construct: purified and unphosphorylated T315I Abl kinase domain; made in house; host or cells: E. coli BL21(DE3) (Codon+RIL or pSA0145 strain)
T1 sequence (P00520 242-493 T315I limits assumed): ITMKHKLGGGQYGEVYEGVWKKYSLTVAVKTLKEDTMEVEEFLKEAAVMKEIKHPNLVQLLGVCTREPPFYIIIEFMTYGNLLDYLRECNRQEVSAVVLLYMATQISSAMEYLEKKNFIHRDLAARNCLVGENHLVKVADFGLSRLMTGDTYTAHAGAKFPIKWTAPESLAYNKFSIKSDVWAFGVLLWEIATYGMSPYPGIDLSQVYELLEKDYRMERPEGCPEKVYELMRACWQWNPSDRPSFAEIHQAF
Description: Although the first of these examples uses the kinase domain of a mutant form of Abl T315I (“Abl T315I KD”), the kinase assays may use various forms of mutant and wild type enzymes, including, for example, the entire protein, the kinase domain, or a portion thereof (e.g. Abl Y393F). The kinases used in the assays may also be of varying phosphorylation states. In the c-Abl example, a mutant kinase at a zero phosphorylation state was used. c-Abl Pyruvate Kinase/Lactate Dehydrogenase Coupled Enzyme Assay
In the c-Abl Pyruvate Kinase (PK)/Lactate Dehydrogenase (LDH) Coupled Assay the protein kinase dependant phosphorylation of a substrate peptide was coupled to the oxidation of NADH. The oxidation of NADH to NAD+ was detected by monitoring a decrease in absorbance at 340 nm.
Materials: Abl substrate peptide=EAIYAAPFAKKK (SEQ ID NO: 1)—OH (Biopeptide, San Diego, Calif.); pNADH (Sigma Cat#N-8129, FW=709.4); 2M MgC12; 1M HEPES buffer, pH 7.5; Phosphoenolpyruvate (PEP) (Sigma Cat#P-7002, FW=234); Lactate dehydrogenase (LDH) (Worthington Biochemical Cat#2756); Pyruvate Kinase (PK) (Sigma Cat#P-9136); ATP (Sigma Cat#A-3377, FW=551); Greiner 384-well UV star plate; and purified and unphosphorylated T315I Abl kinase domain.
Stock Solutions: 10 mM NADH (7.09 mg/ml in miliQH2O) made fresh daily; 10 mM Abl substrate peptide (13.4 mg/ml in miliQH2O) stored at −20° C.; 100 mM HEPES buffer, pH 7.5 (5 ml 1M stock+45 ml miliQH2O); 100 mM MgCl2 (5 ml 2M MgCl2+95 ml dH2O); 100 MM PEP (23.4 mg/ml in dH2O) stored at −20° C.; 10 mM ATP (5.51 mg/ml in dH2O) stored at −20° C. (diluted 50 μl into total of 10 ml miliQH2O daily=50 μM ATP working stock); 1000 U/ml PK (U/mg varies with lot) flash-frozen under liquid N2 and stored at −80° C.; and 1000 U/ml LDH (U/mg varies with lot) flash-frozen under liquid N2 and stored at −80° C.
Standard Assay Setup for 384-well format (50 μl reaction): 300 μM NADH; 10 mM MgCl2; 2 mM PEP; 45U/ml PK; 60 U/ml LDH; 200 μM Abl substrate peptide; 2.5 μl test compound (in DMSO); 2 μg/ml Abl kinase domain; 10 μM ATP; 100 mM HEPES buffer. Positive controls contained DMSO with no test compound. Negative controls contained 5 μl of 0.5M EDTA (50 mM in the assay). The dephosphorylated form of the c-Abl T315I mutant was used in the biochemical screening assays. The kinase reaction was initiated at time t=0 by the addition of ATP.
Activity was measured by following the time-dependent loss of NADH by absorbance spectroscopy at 340 nm. The linear portion of the resulting progress curve was then analyzed by linear regression to get the activity in absorbance units/time, reported as the slope of that best fit line (moles/unit time can be calculated from using molar extinction coefficient for NADH at 340 nm, 6250M^−1 cm^−1).
Data was evaluated using the equation: Z′=1−[3*(σ++σ−)/|μ+−μ−|](Zhang, et al., 1999 J Biomol Screening 4(2) 67-73), where μ denotes the mean and σ the standard deviation. The subscript designates positive or negative controls. The Z′ score for a robust screening assay should be ≧0.50. The typical threshold=μ+−3*σ+. Any value that falls below the threshold was designated a “hit”.
Dose response was analyzed using the equation: y=min+{(max−min)/(1+10^[compound]−logIC50)}, where y is the observed initial slope, max=the slope in the absence of inhibitor, min=the slope at infinite inhibitor, and the IC50 is the [compound] that corresponds to ½ the total observed amplitude (Amplitude=max−min).
To measure modulation, activation, or inhibition of Abl KD, a test compound was added to the assay at a range of concentrations. Inhibitors may inhibit Abl KD activity at an IC50 in the micromolar range, the nanomolar range, or, for example, in the subnanomolar range.
An open-reading frame for c-Abl was amplified from a Mus musculus (mouse) cDNA library prepared from freshly harvested mouse liver using a commercially available kit (invitrogen) by PCR using the following primers: […]
The c-Abl T315I KD (kinase domain) was purified as follows. […]

[2] = biological target: Ba/F3 cells, ABL1 WT (Homo sapiens, UniProt P00519); assay: 96-well XTT cell survival assay, Ba/F3 ABL1 WT; assay type: cell-based; details: 72 hours, read-out: ABL1 WT XTT [Ba/F3] IC50
Procedure: (§1) MV4-11 and THP cells were maintained in Iscove's Modified Dulbecco's Medium supplemented with 10% fetal bovine serum (FBS) and penicillin/streptomycin, Ba/F3 cells were maintained in RPMI 1640 supplemented with 10% FBS, penicillin/streptomycin and 5 ng/ml recombinant mouse IL-3.
(§2) Compounds were tested in the following assays in duplicate.
(§3) 96-well XTT assay: Cells (e.g. BaF3 315I, M351I, or E255K cells) were grown in growth media containing various concentrations of compounds (duplicates) on a 96-well plate for 72 hours at 37° C. The starting cell number was 5000-8000 cells per well and volume was 120 μl. At the end of the 72-hour incubation, 40 μl of XTT labeling mixture (50:1 solution of sodium 3′-[1-(phenylamino-carbonyl)-3,4-tetrazolium]-bis(4-methoxy-6-nitro)benzene sulfonic acid hydrate and Electron-coupling reagent: PMS (N-methyl dibenzopyrazine methyl sulfate) were added to each well of the plate. After an additional 2-6 hours of incubation at 37° C., the absorbance reading at 405 nm with background correction at 650 nm was measured with a spectrophotometer.

[3] = biological target: Ba/F3 cells, ABL1 T315I (Homo sapiens, UniProt P00519, T315I, cells depend on it); assay: 96-well XTT cell survival assay, Ba/F3 ABL1 T315I; assay type: cell-based; details: 72 hours, read-out: ABL1 T315I XTT [Ba/F3] IC50
Procedure: as §1, §2, §3

| SMILES | IC50 [1] [nM] | GI50 [2] [nM] | GI50 [3] [nM] |
| --- | --- | --- | --- |
| COc1ccccc1-c1n[nH]c2ncc(-c3cccc(C(O)c4ncccc4C)c3)cc12 (stereo not shown) | < 50 | < 1000 | < 1000 |
| CN(C)C(=O)C(O)c1cncc(-c2cnc3[nH]cc(-c4cccc5c4OC(F)(F)O5)c3c2)c1 (stereo not shown) | < 50 | < 1000 | > 1000 |
| COc1ccccc1-c1n[nH]c2ncc(-c3cccc(C(=O)C(=O)N(C)C)c3)cc12 | < 50 | > 1000 | > 1000 |
| COc1ccccc1-c1n[nH]c2ncc(-c3cccc(C(O)C(=O)N4CCC(O)CC4)c3)cc12 (stereo not shown) | < 50 | > 1000 | > 1000 |
| CN(C)C(=O)C(O)c1cncc(-c2cnc3[nH]cc(-c4ccccc4Cl)c3c2)c1 (stereo not shown) | < 50 | < 1000 | < 1000 |
| COc1ccccc1-c1c[nH]c2ncc(-c3cccc(C(O)C(=O)N(C)CCN(C)C)n3)cc12 (stereo not shown) | < 50 | > 1000 | > 1000 |
| COc1ccccc1-c1c[nH]c2ncc(-c3cccc(C(O)C(=O)N(C)C4CCOCC4)c3)cc12 (stereo not shown) | < 50 | < 1000 | < 1000 |
| COc1ccccc1-c1n[nH]c2ncc(-c3cccc([C@H](O)[C@@H](O)C(C)C)c3)cc12 | < 50 | < 1000 | < 1000 |
| COc1ccccc1-c1n[nH]c2ncc(-c3cccc(C(OC)C(=O)N4CC(O)C4)c3)cc12 (stereo not shown) | < 50 | – | – |
| COc1ccccc1-c1n[nH]c2ncc(-c3cccc(C(C(=O)N4CCC(O)C4)N(C)C)c3)cc12 (stereo not shown) | 50 to 500 | – | – |
| COc1ccccc1-c1c[nH]c2ncc(-c3cncc(C(O)C(=O)N(C)C)n3)cc12 (stereo not shown) | > 500 | – | – |
| CN(C)C(=O)C(O)c1cncc(-c2cnc3[nH]cc(-c4cc(C(F)(F)F)nn4C)c3c2)c1 (stereo not shown) | > 500 | – | – |
| CC(=O)Nc1ccc(-c2c[nH]c3ncc(-c4cncc(C(O)C(=O)N(C)C)c4)cc23)cc1 (stereo not shown) | < 50 | – | > 1000 |
| COc1ccccc1-c1c[nH]c2ncc(-c3cccc(C(CC(=O)N(C)CCN(C)C)N4CCS(=O)(=O)CC4)c3)cc12 (stereo not shown) | > 500 | – | – |
| CN(C)C(=O)C(O)c1cncc(-c2cnc3[nH]cc(-c4cccc(Cl)c4)c3c2)c1 (stereo not shown) [drawing 459] | < 50 | < 1000 | – |
| CNC(C(=O)N1CCC(O)C1)c1cccc(-c2cnc3[nH]nc(-c4ccccc4OC)c3c2)c1 (stereo not shown) | < 50 | – | – |
| COc1ccccc1-c1n[nH]c2ncc(-c3cccc(C(C(=O)N(C)C)N(C)C)c3)cc12 (stereo not shown) | 50 to 500 | – | – |
| COc1ccccc1-c1n[nH]c2ncc(-c3cccc(C(O)CN)c3)cc12 (stereo not shown) | < 50 | – | – |
| CN(C)C(=O)C(O)c1cncc(-c2cnc3[nH]cc(-c4ccc(C(F)(F)F)cc4)c3c2)c1 (stereo not shown) | 50 to 500 | – | – |

The next lines start with results.

| IC50 [1] [nM] | SMILES | GI50 [2] [nM] | GI50 [3] [nM] |
| --- | --- | --- | --- |
| < 50 | COc1ccccc1-c1n[nH]c2ncc(-c3cccc(C(O)c4ncccc4C(F)(F)F)c3)cc12 (stereo not shown) | > 1000 | > 1000 |
| < 50 | COc1ccccc1-c1c[nH]c2ncc(-c3cncc(C(O)C4CC4)c3)cc12 (stereo not shown) | < 1000 | < 1000 |
| < 50 | COc1ccc(F)cc1-c1c[nH]c2ncc(-c3cc(C(O)C(=O)N(C)C)c[n+]([O-])c3)cc12 (stereo not shown) | > 1000 | > 1000 |
| < 50 | COc1ccccc1-c1n[nH]c2ncc(-c3cccc([C@@H]4OCO[C@H]4C(C)C)c3)cc12 | – | – |
| > 500 | CN(C)C(=O)C(=O)c1cncc(-c2cnc3[nH]cc(-c4ccnn4C)c3c2)c1 | – | – |
| > 500 | COc1ccccc1-c1c[nH]c2ncc(-c3cccc(C(CC(=O)N(C)C)N4CCS(=O)(=O)CC4)c3)cc12 (stereo not shown) | – | – |
| 50 to 500 | CN(C)C(=O)C(O)c1cncc(-c2cnc3[nH]cc(-c4cccc(C#N)c4)c3c2)c1 (stereo not shown) | – | – |
| 50 to 500 | COc1ccccc1-c1n[nH]c2ncc(-c3cccc(C(C(=O)N(C)C(C)C)N(C)C)c3)cc12 (stereo not shown) | – | – |
| 50 to 500 | CN(C)C(=O)C(O)c1cncc(-c2cnc3[nH]cc(-c4ncco4)c3c2)c1 (stereo not shown) | – | – |
| 50 to 500 | CN(C)C(=O)C(O)c1cncc(-c2cnc3[nH]cc(-c4cnn(C)c4)c3c2)c1 (stereo not shown) | – | – |
| 50 to 500 | CN(C)C(=O)C(O)c1cncc(-c2cnc3[nH]cc(-c4ccn(-c5ccccc5)n4)c3c2)c1 (stereo not shown) | – | – |
| 50 to 500 | Cc1noc(C)c1-c1c[nH]c2ncc(-c3cncc(C(O)C(=O)N(C)C)c3)cc12 (stereo not shown) | – | – |
